Columns and labels:
[1] = molecular target: T1, 5-hydroxytryptamine receptor 2C (Homo sapiens, UniProt P28335)
T1 sequence (P28335 whole entry): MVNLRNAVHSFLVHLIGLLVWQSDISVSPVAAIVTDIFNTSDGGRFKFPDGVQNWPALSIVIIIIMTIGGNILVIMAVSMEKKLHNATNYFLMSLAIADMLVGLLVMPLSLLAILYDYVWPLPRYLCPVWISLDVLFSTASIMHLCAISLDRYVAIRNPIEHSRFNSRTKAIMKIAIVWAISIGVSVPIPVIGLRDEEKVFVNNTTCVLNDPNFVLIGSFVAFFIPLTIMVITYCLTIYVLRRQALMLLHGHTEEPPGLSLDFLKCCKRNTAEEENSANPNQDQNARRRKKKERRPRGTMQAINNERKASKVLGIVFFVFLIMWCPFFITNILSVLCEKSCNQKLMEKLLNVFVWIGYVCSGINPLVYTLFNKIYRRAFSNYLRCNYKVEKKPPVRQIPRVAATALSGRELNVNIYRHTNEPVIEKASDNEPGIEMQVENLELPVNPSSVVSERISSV

[2] = molecular target: T2, 5-hydroxytryptamine receptor 2A (Homo sapiens, UniProt P28223); experiment: Displacement of [125I]-DOI from 5-HT2A receptor (unknown origin) expressed in HEK293 cell membrane assessed as inhibition constant incubated for 1 hr by scintillation counter analysis; assay type: cell membranes
T2 sequence (P28223 whole entry): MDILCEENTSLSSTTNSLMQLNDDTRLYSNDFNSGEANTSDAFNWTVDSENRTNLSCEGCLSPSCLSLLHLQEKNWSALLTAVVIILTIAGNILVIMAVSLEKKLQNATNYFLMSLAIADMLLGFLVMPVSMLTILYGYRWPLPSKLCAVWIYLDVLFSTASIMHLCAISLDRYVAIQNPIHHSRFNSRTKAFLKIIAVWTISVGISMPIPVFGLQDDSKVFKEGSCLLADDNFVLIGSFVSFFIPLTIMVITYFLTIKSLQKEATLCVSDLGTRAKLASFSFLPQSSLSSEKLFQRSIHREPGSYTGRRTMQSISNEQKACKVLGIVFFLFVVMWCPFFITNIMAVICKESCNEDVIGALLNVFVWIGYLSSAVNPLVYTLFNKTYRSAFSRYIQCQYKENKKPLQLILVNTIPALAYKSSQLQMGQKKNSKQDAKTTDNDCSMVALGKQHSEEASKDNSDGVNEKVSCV

[3] = molecular target: T3, 5-hydroxytryptamine receptor 2B (Homo sapiens, UniProt P41595); experiment: Displacement of [125I]-DOI from 5-HT2B receptor (unknown origin) expressed in HEK293 cell membrane incubated for 1 hr by scintillation counter analysis; assay type: cell membranes
T3 sequence (P41595 whole entry): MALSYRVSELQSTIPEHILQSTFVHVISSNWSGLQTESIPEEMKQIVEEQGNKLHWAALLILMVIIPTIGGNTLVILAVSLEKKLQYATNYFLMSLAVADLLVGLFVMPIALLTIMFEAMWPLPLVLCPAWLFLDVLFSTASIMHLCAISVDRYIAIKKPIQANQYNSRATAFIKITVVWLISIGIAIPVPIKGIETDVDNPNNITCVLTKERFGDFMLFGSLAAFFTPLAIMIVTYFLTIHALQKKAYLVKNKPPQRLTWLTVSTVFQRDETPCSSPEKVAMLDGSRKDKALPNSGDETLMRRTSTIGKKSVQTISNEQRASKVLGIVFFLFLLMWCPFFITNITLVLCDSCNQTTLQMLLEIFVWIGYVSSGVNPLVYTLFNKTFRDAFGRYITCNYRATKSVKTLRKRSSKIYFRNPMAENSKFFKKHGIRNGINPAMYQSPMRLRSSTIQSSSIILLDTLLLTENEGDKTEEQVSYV

[4] = molecular target: T3, 5-hydroxytryptamine receptor 2B; experiment: Displacement of [125I]-DOI from 5-HT2B receptor (unknown origin) expressed in HEK293 cell membrane assessed as inhibition constant incubated for 1 hr by scintillation counter analysis; assay type: cell membranes
[5] = molecular target: T2, 5-hydroxytryptamine receptor 2A; experiment: Displacement of [125I]-DOI from 5-HT2A receptor (unknown origin) expressed in HEK293 cell membrane incubated for 1 hr by scintillation counter analysis; assay type: cell membranes
[6] = molecular target: T1, 5-hydroxytryptamine receptor 2C; remark: listed apart in the source
[7] = Drug concentration in plasma of fasted male Sprague-Dawley rat assessed as inhibition of food intake at 10 mg/kg, po measured after 1 hr relative to control; assay type: organism-based
Rattus norvegicus [8] = experiment: Hypophagic effect in fasted male Sprague-Dawley rat assessed as effective dose administered orally measured after 1 hr relative to control; assay type: functional; conditions: route po
Rattus norvegicus [9] = experiment: Hypophagic effect in fasted male Sprague-Dawley rat assessed as inhibition of food intake at 10 mg/kg, po measured after 1 hr relative to control; assay type: functional; conditions: for inhibition (INH): 10 mg/kg; for inhibition in vivo at 10 mg/kg: Rattus norvegicus, Sprague-Dawley, po
[10] = Drug concentration in brain of fasted male Sprague-Dawley rat assessed as inhibition of food intake at 10 mg/kg, po measured after 1 hr relative to control; assay type: organism-based; conditions: read-out: Ct
Rattus norvegicus [11] = experiment: Hypophagic effect in fasted male Sprague-Dawley rat assessed as inhibition of food intake at 5 mg/kg, po measured after 1 hr relative to control; assay type: functional
Rattus norvegicus [12] = species on record: Rattus norvegicus; experiment: animal or person; conditions: Sprague-Dawley, po, 1 h, read-out: INH
Rattus norvegicus [13] = species on record: Rattus norvegicus; experiment: animal or person; conditions: Sprague-Dawley, 1 h, read-out: INH

Ki [1] [nM]	Ki [2] [nM]	EC50 [3] [nM]	Ki [4] [nM]	EC50 [5] [nM]	EC50 [6] [nM]	SMILES	other results
61	18900	> 50000	2490	> 50000	33	O=C(NCCCl)c1ccc2c3c1CCN3CCNC2	–
–	–	> 50000	–	> 50000	5600	CNC(=O)c1ccc2c3c1CCCN3CCNC2	–
380	21800	> 50000	9650	> 50000	400	O=C(NC1CC1)c1ccc2c3c1CCN3CCNC2	–
75	> 30000	> 50000	> 50000	> 50000	57	CC(C)OCCNC(=O)c1ccc2c3c1CCN3CCNC2	–
25	2680	–	> 50000	–	14	O=C(NCC(F)F)c1ccc2c3c1C(CC(F)(F)F)CN3CCNC2 (racemic)	–
1150	> 30000	> 50000	8760	> 50000	3920	CC(C)NC(=O)c1ccc2c3c1CCN3CCNC2	–
84	> 30000	> 50000	> 50000	> 50000	59	CSCCNC(=O)c1ccc2c3c1CCN3CCNC2	–
–	–	> 50000	–	> 50000	> 50000	O=C(NCC(F)(F)F)c1ccc2c3c1CCN3CCNC2	–
29	17800	> 50000	> 50000	> 50000	15	CCSCCNC(=O)c1ccc2c3c1CCN3CCNC2	–
121	212	–	> 50000	–	80	CCC1CN2CCNCc3ccc(C(=O)NCCF)c1c32 (racemic)	–
232	> 50000	> 50000	> 50000	> 50000	193	CCOCCNC(=O)c1ccc2c3c1CCCN3CCNC2	–

The remaining lines, values behind:

SMILES	Ki [1] [nM]	Ki [2] [nM]	EC50 [3] [nM]	Ki [4] [nM]	EC50 [5] [nM]	EC50 [6] [nM]	other results
CNC(=O)c1ccc2c3c1C(CC(F)(F)F)CN3CCNC2 (single isomer, unassigned; (+))	–	–	–	–	–	–	concentration at 1 h [7]: 1660 ng/mL; ED50 (Rattus norvegicus [8]): 5.2 mg/kg; inhibition (INH) (Rattus norvegicus [9]): 83%; concentration at 1 h [10]: 440 ng/g; inhibition in vivo at 5 mg/kg (Rattus norvegicus [11]): 41%
O=C(NCCF)c1ccc2c3c1CCN3CCNC2	249	> 30000	> 50000	> 50000	> 50000	430	–
CCCNC(=O)c1ccc2c3c1C(CC(F)(F)F)CN3CCNC2 (single isomer, unassigned; (+))	–	–	–	–	–	–	inhibition in vivo at 10 mg/kg (Rattus norvegicus [9]): 53%
COCCNC(=O)c1ccc2c3c1CCN3CCNC2	–	–	–	–	–	–	inhibition in vivo at 20 mg/kg (Rattus norvegicus [12]): 25%; inhibition in vivo at 10 mg/kg (Rattus norvegicus [13]): 7%; inhibition in vivo at 10 mg/kg (Rattus norvegicus [9]): 9%
CCC1CN2CCNCc3ccc(C(=O)NC)c1c32 (single isomer, unassigned; (-))	–	–	–	–	–	–	inhibition (INH) (Rattus norvegicus [9]): 0%
CCC1CN2CCNCc3ccc(C(=O)NC)c1c32 (single isomer, unassigned; (+))	–	–	–	–	–	–	concentration at 1 h [7]: 1010 ng/mL; ED50 (Rattus norvegicus [8]): 6.4 mg/kg; inhibition (INH) (Rattus norvegicus [9]): 63%; concentration at 1 h [10]: 222 ng/g
COCCNC(=O)c1ccc2c3c1CCCN3CCNC2	–	–	> 50000	–	> 50000	332	–
COCCNC(=O)c1ccc2c3c1C(CC(F)(F)F)CN3CCNC2 (racemic)	38	217	–	> 50000	–	17	–
COC(C)CNC(=O)c1ccc2c3c1CCN3CCNC2 (stereo not given)	348	830	> 50000	7730	> 50000	820	–
O=C(NCC(F)F)c1ccc2c3c1CCN3CCNC2	–	–	> 50000	–	> 50000	400	–
CCNC(=O)c1ccc2c3c1C(CC(F)(F)F)CN3CCNC2 (racemic)	72	1620	–	12400	–	45	–
CN(C)C(=O)c1ccc2c3c1CCN3CCNC2	–	–	> 50000	–	> 50000	> 30000	–
CCCOCCNC(=O)c1ccc2c3c1CCN3CCNC2	19	506	> 50000	2510	> 50000	15	–
CCNC(=O)c1ccc2c3c1CCN3CCNC2	210	> 30000	> 50000	8160	> 50000	252	–
CCC1CN2CCNCc3ccc(C(=O)NCC(F)F)c1c32 (single isomer, unassigned; (+))	–	–	–	–	–	–	concentration at 1 h [7]: 866 ng/mL; ED50 (Rattus norvegicus [8]): > 5 mg/kg; concentration at 1 h [10]: 454 ng/g; inhibition in vivo at 5 mg/kg (Rattus norvegicus [11]): 27%
NC(=O)c1ccc2c3c1CCN3CCNC2	500	–	> 50000	–	> 50000	2700	–
CNC(=O)c1ccc2c3c1C(CC(F)(F)F)CN3CCNC2 (single isomer, unassigned; (-))	–	–	–	–	–	–	inhibition (INH) (Rattus norvegicus [9]): 0%
O=C(NCCOc1ccccc1)c1ccc2c3c1CCN3CCNC2	18	2630	> 50000	1670	> 50000	21	–
CS(=O)(=O)CCNC(=O)c1ccc2c3c1CCN3CCNC2	12600	> 30000	> 50000	> 50000	> 50000	> 50000	–
CNC(=O)c1ccc2c3c1C(CC(F)F)CN3CCNC2 (racemic)	30	3780	–	804	–	23	–
CCCCNC(=O)c1ccc2c3c1CCN3CCNC2	160	> 30000	> 50000	11800	> 50000	91	–
O=C(NCC(F)(F)F)c1ccc2c3c1C(CC(F)(F)F)CN3CCNC2 (racemic)	91	7330	–	5150	–	178	–
COCC(C)NC(=O)c1ccc2c3c1CCN3CCNC2 (stereo not given)	3070	> 30000	> 50000	> 50000	> 50000	7400	–
O=C(NCC1CC1)c1ccc2c3c1CCN3CCNC2	320	17800	> 50000	17800	> 50000	360	–
CCOCCNC(=O)c1ccc2c3c1CCN3CCNC2	43	6070	> 50000	15500	> 50000	33	inhibition in vivo at 10 mg/kg (Rattus norvegicus [9]): 26%

Source: ChEMBL document CHEMBL6182909 (J Med Chem, 2025)
